# Tests used:
# Type in all cases: in vivo
# [1] = tested on: eastern black nightshade (Solanum ptycanthum); assay: Test C; set-up: key: 0 was no effect; 100 was complete control; details: PREEMERGENCE
# [2] = tested on: lambsquarters (Chenopodium album); assay: Test C; set-up: key: 0 was no effect; 100 was complete control; details: PREEMERGENCE
# [3] = tested on: barnyardgrass (Echinochloa crus-galli); assay: Test C; details: PREEMERGENCE
# [4] = tested on: arrowleaf sida (Sida rhombifolia); assay: Test C; set-up: key: 0 was no effect; 100 was complete control; details: PREEMERGENCE
# [5] = tested on: large crabgrass (Digitaria sanguinalis); assay: Test C; set-up: key: 0 was no effect; 100 was complete control; details: PREEMERGENCE
# [6] = tested on: large crabgrass (Digitaria sanguinalis); assay: Test E pre-/postemergence/post directed
# How it was run: (§1)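 Three application modes in greenhouse pots: preemergence soil spray, postemergence foliar spray at two to four leaves, and post-directed spray to soil and plant base. Ratings of 0–100 injury, assigned visually against untreated controls 13 to 21 days later.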
# [7] = tested on: alexandergrass (Brachiaria plantaginea); assay: Test E pre-/postemergence/post directed
# How it was run: as §1
# [8] = tested on: itchgrass (Rottboellia exaltata); assay: Test E pre-/postemergence/post directed
# How it was run: as §1
# [9] = tested on: sandbur (Cenchrus echinatus); assay: Test E pre-/postemergence/post directed
# How it was run: as §1
# [10] = tested on: common ragweed (Ambrosia elatior); assay: Test E pre-/postemergence/post directed
# How it was run: as §1
# [11] = tested on: surinam grass (Brachiaria decumbens); assay: Test E pre-/postemergence/post directed
# How it was run: as §1
# [12] = tested on: johnson grass (Sorghum halepense); assay: Test E pre-/postemergence/post directed
# How it was run: as §1
# [13] = tested on: pitted morningglory (Ipomoea lacunosa); assay: Test E pre-/postemergence/post directed
# How it was run: as §1
# [14] = tested on: bermudagrass (Cynodon dactylon); assay: Test E pre-/postemergence/post directed
# How it was run: as §1
# [15] = tested on: common groundsel (Senecio vulgaris); assay: Test E pre-/postemergence/post directed; details: PREEMERGENCE
# How it was run: as §1
# [16] = tested on: Spanishneedles (Bidens bipinnata); assay: Test E pre-/postemergence/post directed
# How it was run: as §1
# [17] = tested on: purple nutsedge (Cyperus rotundus); assay: Test E pre-/postemergence/post directed
# How it was run: as §1
# [18] = tested on: fall panicum (Panicum dichotomiflorum); assay: Test C; set-up: key: 0 was no effect; 100 was complete control; details: PREEMERGENCE
# [19] = tested on: redroot pigweed (Amaranthus retroflexus); assay: Test C; set-up: key: 0 was no effect; 100 was complete control; details: PREEMERGENCE
# [20] = tested on: ivyleaf morningglory (Ipomoea hederacea); assay: Test C; set-up: key: 0 was no effect; 100 was complete control; details: PREEMERGENCE
# [21] = tested on: wild poinsettia (Euphorbia heterophylla); assay: Test C; set-up: key: 0 was no effect; 100 was complete control; details: PREEMERGENCE
smiles,measurement,setting,value
Cc1cnc(-n2ccc(C(F)(F)F)n2)nc1Cn1ccc(C(F)(F)F)n1 [Compound 52],"Plant response rating, E. blacknightsh",[1]; Rate 35 g/ha,40
same,"Plant response rating, E. blacknightsh",[1]; Rate 70 g/ha,80
same,"Plant response rating, E. blacknightsh",[1]; Rate 140 g/ha,100
same,"Plant response rating, Lambsquarters",[2]; Rate 35 g/ha,100
same,"Plant response rating, Lambsquarters",[2]; Rate 70 g/ha,100
same,"Plant response rating, Lambsquarters",[2]; Rate 140 g/ha,100
same,"Plant response rating, Barnyardgrass",[3]; Rate 35 g/ha,30
same,"Plant response rating, Barnyardgrass",[3]; Rate 70 g/ha,40
same,"Plant response rating, Barnyardgrass",[3]; Rate 140 g/ha,40
same,"Plant response rating, Arrowleaf sida",[4]; Rate 35 g/ha,100
same,"Plant response rating, Arrowleaf sida",[4]; Rate 70 g/ha,100
same,"Plant response rating, Arrowleaf sida",[4]; Rate 140 g/ha,100
same,"Plant response rating, Large crabgrass",[5]; Rate 35 g/ha,100
same,"Plant response rating, Large crabgrass",[5]; Rate 70 g/ha,100
same,"Plant response rating, Large crabgrass",[5]; Rate 140 g/ha,100
same,"Plant response rating, Large crabgrass","[6]; POSTEMERGENCE, Rate 125 g/ha",5
same,"Plant response rating, Large crabgrass","[6]; POSTEMERGENCE, Rate 250 g/ha",80
same,"Plant response rating, Large crabgrass","[6]; PREEMERGENCE, Rate 32 g/ha",98
same,"Plant response rating, Alexandergrass","[7]; POSTEMERGENCE, Rate 125 g/ha",10
same,"Plant response rating, Alexandergrass","[7]; POSTEMERGENCE, Rate 250 g/ha",75
same,"Plant response rating, Alexandergrass","[7]; PREEMERGENCE, Rate 32 g/ha",20
same,"Plant response rating, Alexandergrass","[7]; PREEMERGENCE, Rate 64 g/ha",75
same,"Plant response rating, Alexandergrass","[7]; PREEMERGENCE, Rate 125 g/ha",75
same,"Plant response rating, Itchgrass","[8]; POSTEMERGENCE, Rate 125 g/ha",35
same,"Plant response rating, Itchgrass","[8]; POSTEMERGENCE, Rate 250 g/ha",40
same,"Plant response rating, Itchgrass","[8]; PREEMERGENCE, Rate 32 g/ha",35
same,"Plant response rating, Itchgrass","[8]; PREEMERGENCE, Rate 64 g/ha",70
same,"Plant response rating, Itchgrass","[8]; PREEMERGENCE, Rate 125 g/ha",80
same,"Plant response rating, Sandbur","[9]; POSTEMERGENCE, Rate 125 g/ha",5
same,"Plant response rating, Sandbur","[9]; POSTEMERGENCE, Rate 250 g/ha",60
same,"Plant response rating, Sandbur","[9]; PREEMERGENCE, Rate 64 g/ha",10
same,"Plant response rating, Sandbur","[9]; PREEMERGENCE, Rate 125 g/ha",50
same,"Plant response rating, Com. ragweed","[10]; POSTEMERGENCE, Rate 125 g/ha",50
same,"Plant response rating, Com. ragweed","[10]; POSTEMERGENCE, Rate 250 g/ha",80
same,"Plant response rating, Com. ragweed","[10]; PREEMERGENCE, Rate 32 g/ha",35
same,"Plant response rating, Com. ragweed","[10]; PREEMERGENCE, Rate 64 g/ha",80
same,"Plant response rating, Surinam grass","[11]; POSTEMERGENCE, Rate 125 g/ha",75
same,"Plant response rating, Surinam grass","[11]; POSTEMERGENCE, Rate 250 g/ha",75
same,"Plant response rating, Surinam grass","[11]; PREEMERGENCE, Rate 32 g/ha",30
same,"Plant response rating, Surinam grass","[11]; PREEMERGENCE, Rate 64 g/ha",70
same,"Plant response rating, Surinam grass","[11]; PREEMERGENCE, Rate 125 g/ha",80
same,"Plant response rating, Johnsongrass","[12]; POSTEMERGENCE, Rate 125 g/ha",35
same,"Plant response rating, Johnsongrass","[12]; POSTEMERGENCE, Rate 250 g/ha",20
same,"Plant response rating, Johnsongrass","[12]; PREEMERGENCE, Rate 64 g/ha",50
same,"Plant response rating, Johnsongrass","[12]; PREEMERGENCE, Rate 125 g/ha",75
same,"Plant response rating, P. morninglory","[13]; POSTEMERGENCE, Rate 125 g/ha",80
same,"Plant response rating, P. morninglory","[13]; POSTEMERGENCE, Rate 250 g/ha",80
same,"Plant response rating, P. morninglory","[13]; PREEMERGENCE, Rate 32 g/ha",50
same,"Plant response rating, Bermudagrass","[14]; POSTEMERGENCE, Rate 125 g/ha",35
same,"Plant response rating, Bermudagrass","[14]; POSTEMERGENCE, Rate 250 g/ha",35
same,"Plant response rating, Bermudagrass","[14]; PREEMERGENCE, Rate 32 g/ha",70
same,"Plant response rating, Bermudagrass","[14]; PREEMERGENCE, Rate 64 g/ha",90
same,"Plant response rating, Com. groundsel",[15]; Rate 32 g/ha,35
same,"Plant response rating, Com. groundsel",[15]; Rate 64 g/ha,98
same,"Plant response rating, Spanishneedles","[16]; POSTEMERGENCE, Rate 125 g/ha",65
same,"Plant response rating, Spanishneedles","[16]; POSTEMERGENCE, Rate 250 g/ha",60
same,"Plant response rating, Spanishneedles","[16]; PREEMERGENCE, Rate 32 g/ha",20
same,"Plant response rating, Spanishneedles","[16]; PREEMERGENCE, Rate 64 g/ha",20
same,"Plant response rating, Spanishneedles","[16]; PREEMERGENCE, Rate 125 g/ha",35
same,"Plant response rating, Purple nutsedge","[17]; POSTEMERGENCE, Rate 125 g/ha",40
same,"Plant response rating, Purple nutsedge","[17]; POSTEMERGENCE, Rate 250 g/ha",50
same,"Plant response rating, Purple nutsedge","[17]; PREEMERGENCE, Rate 32 g/ha",5
same,"Plant response rating, Purple nutsedge","[17]; PREEMERGENCE, Rate 64 g/ha",30
same,"Plant response rating, Purple nutsedge","[17]; PREEMERGENCE, Rate 125 g/ha",50
same,"Plant response rating, Fall panicum",[18]; Rate 35 g/ha,100
same,"Plant response rating, Fall panicum",[18]; Rate 70 g/ha,100
same,"Plant response rating, Fall panicum",[18]; Rate 140 g/ha,100
same,"Plant response rating, Redroot pigweed",[19]; Rate 35 g/ha,100
same,"Plant response rating, Redroot pigweed",[19]; Rate 70 g/ha,100
same,"Plant response rating, Redroot pigweed",[19]; Rate 140 g/ha,100
same,"Plant response rating, I. morningglory",[20]; Rate 35 g/ha,5
same,"Plant response rating, I. morningglory",[20]; Rate 70 g/ha,100
same,"Plant response rating, I. morningglory",[20]; Rate 140 g/ha,100
same,"Plant response rating, Wild poinsettia",[21]; Rate 70 g/ha,40
same,"Plant response rating, Wild poinsettia",[21]; Rate 140 g/ha,100

# Reference: patent US6525001B1, “Substituted pyrimidine and pyridine herbicides” (Mid-American Commercialization Corporation, priority 1997, dated 2003)
